From patent US20170275249A1, “SMALL LIPOPEPTIDOMIMETIC INHIBITORS OF GHRELIN O-ACYL TRANSFERASE” (THE REGENTS OF THE UNIVERSITY OF CALIFORNIA, priority 2014, published 2017)
Like-named read-outs stand apart in the source and are kept apart here. One block for each compound: values may come before it.

Tests used:
[1] = biological target: T1, mouse GOAT (Mus musculus, UniProt P0C7A3); test: ghrelin radio-octanoylation assay (Yang et al.), Sf9 membrane fractions; assay type: biochemical; details: for GOAT-inhibiting activity in vitro: relative to Compound 1
T1 construct: made in house; host or cells: Sf9 insect cells (baculovirus), membrane fractions
T1 sequence (P0C7A3 1-435): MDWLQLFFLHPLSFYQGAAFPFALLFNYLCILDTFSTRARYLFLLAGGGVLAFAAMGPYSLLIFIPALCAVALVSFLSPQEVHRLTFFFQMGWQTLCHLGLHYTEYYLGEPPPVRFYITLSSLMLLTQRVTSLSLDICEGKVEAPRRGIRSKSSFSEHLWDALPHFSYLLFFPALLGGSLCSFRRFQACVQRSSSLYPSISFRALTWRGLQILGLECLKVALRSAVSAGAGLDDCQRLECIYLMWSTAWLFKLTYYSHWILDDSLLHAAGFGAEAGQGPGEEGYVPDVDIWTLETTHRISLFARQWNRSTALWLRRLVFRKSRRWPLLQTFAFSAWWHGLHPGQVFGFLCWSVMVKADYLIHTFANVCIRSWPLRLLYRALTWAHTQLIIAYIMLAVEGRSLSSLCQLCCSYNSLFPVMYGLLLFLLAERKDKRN
Procedure: In vitro activity was quantified using the octanoylation assay developed by Yang et al. (2008, Proc. Natl. Acad. Sci. USA 105:10750-10755). No pure or soluble form of GOAT that retains enzymatic activity is thus far available. Recombinant poly-His-tagged ghrelin was incubated with radiolabeled octanoyl CoA and membrane fractions isolated from Sf9 cells infected with a GOAT-encoding baculovirus. Recovery of acyl- and des-acyl ghrelin using a Ni^2+ affinity column was followed by scintillation counting to determine the extent of acyltransferase activity, which was reported as a percentage of control.
Thiosarcosine derived peptidomimetic Compound 1 (of Example 1.1) and truncated analog Compound 2 (of Example 1.2), which served as a negative control, were screened for GOAT-inhibiting activity using membrane fractions prepared from Sf9 cells infected with baculovirus encoding mouse GOAT as a source of the acyltransferase. The assay detected specific acyl transfer from tritiated octanoyl-CoA to recombinant His-tagged proghrelin.

[2] = mouse plasma
Procedure: (§1) (Taylor, M. S. et al., 2012, Methods in Enzymology 514:205-228.) For in vitro as well as in vivo pharmacokinetic analyses, inhibitor concentration was determined using LC/MS/MS.
(§2) GOAT inhibitor (Compound 1) and control (Compound 2) were added to liver S9 fractions or mouse plasma and the concentrations of each compound over time were quantified using LC/MS/MS.

[3] = human
Procedure: as §1, §2

[4] = system: GOAT/preproghrelin-expressing INS-1 cells; test: acyl ghrelin production in intact cells, Western immunoblot; assay type: cell-based; details: 18 hours incubation
Procedure: Molecular parameters for Compound 1 were well within those characteristics of orally bioavailable drugs. In INS-1 cell culture, compounds were administered to cultured INS-1 cells that had been engineered to express GOAT and preproghrelin. After incubating the cells in the presence of the compounds for 18 hours, the cells were lysed and ghrelin species (acyl ghrelin vs. total ghrelin) present in the lysates were quantified by Western immunoblot. […] Total ghrelin levels were unchanged irrespective of the inhibitor concentration that was present.

[5] = system: acyl ghrelin : total ghrelin ratio in serum; test: time course of serum acyl ghrelin after IP administration; assay type: in vivo; details: mice, 80 mg/kg IP, FIG. 3
Procedure: Compound 1 was administered intraperitoneally (IP) to mice (dosed at 80 mg/kg) at time zero and blood samples were collected at indicated timepoints (see FIG. 3). Serum acyl ghrelin: total ghrelin ratios were determined using ELISA with antibodies specific for acyl or des-acyl ghrelin. Inhibitor concentrations were determined using LC/MS/MS detection. […] Reappearance of acyl-ghrelin tracked with the time-dependent change in inhibitor concentration in plasma.

[6] = measured LogD; assay type: physicochemical
[7] = stability in liver S9 fractions (LC/MS/MS); details: human liver S9 fractions
Procedure: as §1, §2

[8] = oral bioavailability; assay type: in vivo
[9] = stability in mouse plasma (LC/MS/MS)
Procedure: as §1, §2

[10] = Table 1, inhibitory activity against GOAT, cells printed in nM

IC50 [1, 10]: 25 nM
Compound: CCCC[C@H]1C[C@H](C(=O)NC[C@H]2CCCN2C(=O)[C@@H](NC(=S)CN)C(C)(C)C)C1 [Entry 26]

GOAT-inhibiting activity in vitro [1]: equally potent
Compound: CCCCC1CC(C(=S)NC[C@H]2CCCN2C(=O)[C@@H](NC(=S)CN)C(C)(C)C)C1 (stereo partly drawn) [inhibitor 10, (1s,3R)—N—(((R)-1-((S)-2-(2-AMINOETHANETHIOAMIDO)-3,3-DIMETHYLBUTANOYL)PYRROLIDIN-2-YL)METHYL)-3-BUTYLCYCLOBUTANECARBO-THIOAMIDE HEMITARTRATE]

IC50 [1, 10]: 200 nM
Compound: CCCC[C@H]1C[C@H](C(=S)NC[C@H]2CCCN2C(=O)[C@@H](NC(=S)CN)C(C)(C)C)C1 [Entry 16, (1s,3R)—N—(((R)-1-((S)-2-(2-AMINOETHANETHIOAMIDO)-3,3-DIMETHYLBUTANOYL)PYRROLIDIN-2-YL)METHYL)-3-BUTYLCYCLOBUTANECARBOTHIOAMIDE]

GOAT-inhibiting activity in vitro [1]: inactive | Plasma t1/2 [2]: 1.52 h | Liver S9 t1/2 [3]: 2.08 h
Compound: CCCCC1CC(C(=O)NC[C@H]2CCCN2C(=O)[C@@H](N)C(C)(C)C)C1.CCCCC1CC(C(=O)NC[C@H]2CCCN2C(=O)[C@@H](N)C(C)(C)C)C1.O=C(O)C(O)C(O)C(=O)O (stereo partly drawn) [Compound 2, (1s,3R)—N—(((R)-1-((S)-2-AMINO-3,3-DIMETHYLBUTANOYL)PYRROLIDIN-2-YL)METHYL)-3-BUTYLCYCLOBUTANECARBOXAMIDE HEMITARTRATE]
inhibition of acyl ghrelin biosynthesis ([4]; FIG. 4): inactive

IC50 [1, 10]: 2000 nM
Compound: CCCC[C@H]1C[C@@H](C(=O)NCCN(C)C(=O)[C@@H](NC(=O)CN)C2CCCCC2)C1 [Entry 1]

IC50 [1, 10]: > 3000 nM
Compound: C=CCOC(=O)NCC(=S)N[C@H](C(=O)N1CCC[C@@H]1CNC(=S)C1CC(CCCC)C1)C(C)(C)C (some centres unmarked) [Entry 15]

IC50 [1, 10]: 650 nM
Compound: CCCC[C@H]1C[C@@H](C(=S)NC[C@H]2CCCN2C(=O)[C@@H](NC(=O)CN)C2CCCCC2)C1 [Entry 20]

IC50 [1, 10]: > 3000 nM
Compound: CCCC[C@H]1C[C@@H](C(=O)NC[C@H]2CCCN2C(=O)[C@@H](N)C2CCCCC2)C1 [Entry 9]

IC50 ([1]; FIG. 2, tritiated octanoyl-CoA, His-tagged proghrelin): ~30 nM | potency compared side-by-side with prior art GOAT inhibitors ([1]; FIG. 6, versus compounds 3, 4, 5 and 6): by far the most potent inhibitor of GOAT | Measured LogD [6]: 1.71 | Liver S9 t1/2 [7]: 2.03 h | metabolism by liver S9 fractions [7]: slowly metabolized | oral bioavailability % F [8]: 10-15% | Plasma t1/2 [9]: >10.5 h | stability in mouse plasma [9]: stable
Compound: (1s,3R)-3-BUTYL-N—(((R)-1-((S)-3,3-DIMETHYL-2-(2-(METHYLAMINO)ETHANETHIOAMIDO)BUTANOYL)PYRROLIDIN-2-YL)METHYL)CYCLOBUTANE CARBOXAMIDE HEMITARTRATE [Compound 1]
time at which acyl-ghrelin recovered [5]: 3 h | acyl-ghrelin in circulation ([5]; within minutes): near undetectable levels | concentration at which production of acyl ghrelin was inhibited ([4]; FIG. 4): greater than 1 μM | concentration at which production of acyl ghrelin was substantially completely blocked ([4]; FIG. 4): above 5 μM | total ghrelin levels ([4]; irrespective of inhibitor concentration): unchanged

IC50 [1, 10]: > 3000 nM
Compound: CCCCC1CC(C(=O)NC[C@H]2CCCN2C(=O)[C@@H](N)C(C)(C)C)C1 (some centres unmarked) [Entry 2]

IC50 [1, 10]: > 3000 nM
Compound: CCCC[C@H]1C[C@@H](C(=O)NC[C@H]2CCCN2C(=O)[C@@H](NC(=N)CN)C2CCCCC2)C1 [Entry 7]
